In patent US20250353873A1, “COMPOUNDS AND METHODS FOR MODULATING APOE EXPRESSION” (Ionis Pharmaceuticals, Inc., priority 2024, published 2025):
pIC50: −log10 of the molar value. Values joined by “and” are separate entries in the source; they are usually repeats but may differ in a detail not shown here. Equal values may be shown once. Strand notation (5' to 3'): a small letter for the sugar, then the base; units joined by * are phosphorothioate-linked, units joined directly phosphodiester-linked; [ ] holds rarer units or linkages, { } end groups; capitals alone tell only the bases. [ms] = mesyl phosphoramidate linkage; e = 2'-O-(2-methoxyethyl) (MOE); k = constrained ethyl (cEt); [5mC] = 5-methylcytosine; d = 2'-deoxy (DNA)

How the values were obtained:
human APOE RNA [1] = experiment: Activity in APOE C57BL/6NTac-Apoeem7250 knock-in mice, single ICV bolus, 4 weeks (Example 10); assay type: in vivo; conditions: single ICV bolus 300 μg, 4 weeks post treatment, normalized to mouse Ppia
Procedure, shortened: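 Human APOE RNA, quantified by real-time RT-PCR with RTS3073 and normalized to mouse Ppia, was read in cortical brain and spinal cord 4 weeks post dosing. Dosing was a single ICV bolus of 300 μg per knock-in mouse; values are % of PBS-treated animals.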

human APOE RNA [2] = experiment: Activity in APOE C57BL/6NTac-Apoeem7250 knock-in mice, single ICV bolus, 20 weeks (Example 13); assay type: in vivo; conditions: single ICV bolus 300 μg, 20 weeks post treatment, normalized to mouse Ppia
Procedure, shortened: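 Cortical and spinal cord RNA was assayed by real-time RT-PCR for human APOE, normalized to mouse Ppia and reported as percent of PBS controls. Tissue was taken twenty weeks after one 300 μg intracerebroventricular bolus in APOE knock-in mice, 4 per group.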

human APOE RNA [3] = experiment: Activity in APOE C57BL/6NTac-Apoeem7250 knock-in mice, single ICV bolus, 16 weeks (Example 12); assay type: in vivo; conditions: single ICV bolus 300 μg, 16 weeks post treatment, normalized to mouse Ppia
Procedure, shortened: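 A single 300 μg intracerebroventricular dose was given, with PBS-treated mice as reference; cortical and spinal cord tissue was taken 16 weeks later. RT-qPCR quantified human APOE RNA, Ppia-normalized, expressed relative to PBS animals (% control).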

human APOE RNA [4] = experiment: Activity in APOE C57BL/6NTac-Apoeem7250 knock-in mice, single ICV bolus, 8 weeks (Example 11); assay type: in vivo; conditions: single ICV bolus 300 μg, 8 weeks post treatment, normalized to mouse Ppia
Procedure, shortened: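 Cortical and spinal cord human APOE RNA quantified by RT-qPCR 8 weeks after a single 300 μg ICV dose in knock-in mice, Ppia-normalized. Values are percent of levels in PBS-treated animals.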

human APOE RNA [5] = experiment: Dose-dependent inhibition of human APOE RNA in HepG2 cells, electroporation, 50,000 cells per well, RT-PCR normalized to GAPDH (Example 4, Tables 8-10); assay type: cell-based; conditions: HepG2, electroporation, 16-hour treatment
Procedure, shortened: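 Readout is percent APOE RNA versus untreated controls, measured by RT-PCR (primer probe set RTS3073) and normalized to human GAPDH. Modified oligonucleotides were delivered by electroporation at varying doses into HepG2 cells plated at 50,000 per well.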

Substance	APOE RNA (% control) Cortex (human APOE RNA [1])	APOE RNA (% control) Spinal Cord (human APOE RNA [1])	APOE RNA (% control) Cortex (human APOE RNA [2])	APOE RNA (% control) Spinal Cord (human APOE RNA [2])	other results
1778122 (eA*e[5mC]eTeTeG*eG*dT*dG[ms]dA[ms]dA*dT*d[5mC]*dT*dT*dT*dA[ms]kT*kT*eA*eA; antisense) [Compound 1778122]	53 % control	62 % control	76 % control	34 % control	
1785600 (k[5mC]*kT*kT*dG[ms]dG[ms]dT[ms]dG*dA*dA*dT*d[5mC]*dT[ms]dT[ms]dT[ms]dA*dT*kT*kA*dA[ms]kA; antisense) [Compound 1785600]	46 % control	51 % control	60 % control	33 % control	APOE RNA (% control) Cortex (human APOE RNA [3]): 39 % control; APOE RNA (% control) Spinal Cord (human APOE RNA [3]; spinal cord): 30 % control; APOE RNA (% control) Cortex (human APOE RNA [4]): 36 % control; APOE RNA (% control) Spinal Cord (human APOE RNA [4]): 26 % control
1766559 (eT*eTeGeGeT*dG[ms]dA[ms]dA[ms]dT*d[5mC]*dT*dT*dT[ms]dA[ms]dT*kTkAeA*eA*e[5mC]; antisense) [Compound 1766559]	79 % control	81 % control	100 % control	74 % control	APOE RNA (% UTC) (human APOE RNA [5]; 5 nM): 166 % UTC; APOE RNA (% UTC) (human APOE RNA [5]; 33 nM): 65 % UTC; APOE RNA (% UTC) (human APOE RNA [5]; 82 nM): 47 % UTC; APOE RNA (% UTC) (human APOE RNA [5]; 205 nM): 46 % UTC; APOE RNA (% UTC) (human APOE RNA [5]; 512 nM): 41 % UTC; APOE RNA (% UTC) (human APOE RNA [5]; 1,280 nM): 30 % UTC; APOE RNA (% UTC) (human APOE RNA [5]; 3,200 nM): 21 % UTC; APOE RNA (% UTC) (human APOE RNA [5]; 8,000 nM): 35 % UTC; APOE RNA (% UTC) (human APOE RNA [5]; 20,000 nM): 36 % UTC; pIC50 (human APOE RNA [5]): 6.47
1778108 (eA*e[5mC]eTeTeG*kG*dT*dG[ms]dA[ms]dA*dT*d[5mC]*dT*dT*dT*dA[ms]eT*eT*eA*eA; antisense) [Compound 1778108]	60 % control	41 % control	70 % control	21 % control	
1757572 (eA*e[5mC]eTeT*kG*kG*dT*dG[ms]dA[ms]dA[ms]dT*d[5mC]*dT*dT*dT*dA[ms]eT*eT*eA*eA; antisense) [Compound 1757572]	50 % control	38 % control	51 % control	69 % control	APOE RNA (% UTC) (human APOE RNA [5]; 5 nM): 114 % UTC; APOE RNA (% UTC) (human APOE RNA [5]; 13 nM): 95 % UTC; APOE RNA (% UTC) (human APOE RNA [5]; 33 nM): 107 % UTC; APOE RNA (% UTC) (human APOE RNA [5]; 82 nM): 96 % UTC; APOE RNA (% UTC) (human APOE RNA [5]; 205 nM): 83 % UTC; APOE RNA (% UTC) (human APOE RNA [5]; 512 nM): 67 % UTC; APOE RNA (% UTC) (human APOE RNA [5]; 1,280 nM): 66 % UTC; APOE RNA (% UTC) (human APOE RNA [5]; 3,200 nM): 51 % UTC; APOE RNA (% UTC) (human APOE RNA [5]; 8,000 nM): 26 % UTC; APOE RNA (% UTC) (human APOE RNA [5]; 20,000 nM): 10 % UTC; pIC50 (human APOE RNA [5]): 5.63
1779699 (e[5mC]*eTeT*kG*kG*eT*dG[ms]dA[ms]dA[ms]dT*d[5mC]*dT*dT*dT*dA[ms]dT*eT*eA*eA*eA; antisense) [Compound 1779699]	44 % control	54 % control	53 % control	25 % control	
1757573 (eA*e[5mC]eTeT*eG*eG*dT*dG[ms]dA[ms]dA[ms]dT*d[5mC]*dT*dT*dT*dA[ms]kT*eT*eA*eA; antisense) [Compound 1757573]	53 % control	38 % control	61 % control	42 % control	
1693144: 6-10-4 MOE gapmer ACTTGGTGAATCTTTATTAA, linkages soosssszzzssssszsss (eA*e[5mC]eTeT*eG*eG*dT*dG[ms]dA[ms]dA[ms]dT*d[5mC]*dT*dT*dT*dA[ms]eT*eT*eA*eA) [compound 1693144]			65 % control	71 % control	APOE RNA (% control) Cortex (human APOE RNA [3]): 113 % control and 61 % control; APOE RNA (% control) Cortex (human APOE RNA [4]): 67 % control; APOE RNA (% control) Spinal Cord (human APOE RNA [4]): 43 % control
1778110: 6-10-4 MOE gapmer ACTTGGTGAATCTTTATTAA, linkages soooosszzsssssszoss (eA*e[5mC]eTeTeGeG*dT*dG[ms]dA[ms]dA*dT*d[5mC]*dT*dT*dT*dA[ms]eTeT*eA*eA) [compound 1778110]	51 % control	51 % control	81 % control	35 % control	
1779961 (e[5mC]*eTeT*kG[ms]kG*eT*dG[ms]dA[ms]dA[ms]dT*d[5mC]*dT*dT*dT*dA[ms]dT*eT*eA*eA*eA; antisense) [Compound 1779961]	39 % control	53 % control	59 % control	26 % control	
1785588 (k[5mC]*kT*kT*dG[ms]dG[ms]dT[ms]dG*dA*dA[ms]dT[ms]d[5mC]*dT*dT*dT*dA*dT*kT*kA*dA[ms]kA; antisense) [Compound 1785588]	30 % control	29 % control	40 % control	18 % control	
1785591 (k[5mC]*kT*kT*dG[ms]dG[ms]dT[ms]dG*dA*dA*dT*d[5mC]*dT[ms]dT[ms]dT*dA*dT*kT*kA*dA[ms]kA; antisense) [Compound 1785591]	37 % control	39 % control	51 % control	42 % control	
1785589 (k[5mC]*kT*kT*dG[ms]dG[ms]dT[ms]dG*dA*dA*dT[ms]d[5mC][ms]dT*dT*dT*dA*dT*kT*kA*dA[ms]kA; antisense) [Compound 1785589]	32 % control	40 % control	49 % control	30 % control	
1779706 (e[5mC]*eTeTkGkG*dT[ms]dG[ms]dA[ms]dA*dT*d[5mC]*dT*dT*dT*dA*dT*eT*eA*eA*eA; antisense) [Compound 1779706]	35 % control	53 % control	46 % control	36 % control	
1778107: 6-10-4 MOE gapmer ACTTGGTGAATCTTTATTAA, linkages sooossszzsssssszsss (eA*e[5mC]eTeTeG*eG*dT*dG[ms]dA[ms]dA*dT*d[5mC]*dT*dT*dT*dA[ms]eT*eT*eA*eA) [compound 1778107]	70 % control	70 % control	76 % control	32 % control	
1778109: 6-10-4 MOE gapmer ACTTGGTGAATCTTTATTAA, linkages sooossszzsssssszoss (eA*e[5mC]eTeTeG*eG*dT*dG[ms]dA[ms]dA*dT*d[5mC]*dT*dT*dT*dA[ms]eTeT*eA*eA) [compound 1778109]	59 % control	61 % control	81 % control	34 % control	
